Experimental data as given in ChEMBL document CHEMBL1149542, “Carbonic anhydrase inhibitors: inhibition of human, bacterial, and archaeal isozymes with benzene-1,3-disulfonamides--solution and crystallographic studies” (Bioorg Med Chem Lett, 2007).

Columns and labels:
[1] = tested on: Methanosarcina thermophila
Description: Inhibition of Methanosarcina thermophila gamma CA

[2] = target: Carbonic anhydrase 5B, mitochondrial (Homo sapiens) (UniProt Q9Y2D0)
[3] = target: Carbonic anhydrase 5A, mitochondrial (Homo sapiens) (UniProt P35218)
[4] = tested on: Helicobacter pylori
Description: Inhibition of Helicobacter pylori beta CA

[5] = target: Carbonic anhydrase 6 (Homo sapiens) (UniProt P23280)
Carbonic anhydrase 6 (Homo sapiens), sequence (P23280 whole entry): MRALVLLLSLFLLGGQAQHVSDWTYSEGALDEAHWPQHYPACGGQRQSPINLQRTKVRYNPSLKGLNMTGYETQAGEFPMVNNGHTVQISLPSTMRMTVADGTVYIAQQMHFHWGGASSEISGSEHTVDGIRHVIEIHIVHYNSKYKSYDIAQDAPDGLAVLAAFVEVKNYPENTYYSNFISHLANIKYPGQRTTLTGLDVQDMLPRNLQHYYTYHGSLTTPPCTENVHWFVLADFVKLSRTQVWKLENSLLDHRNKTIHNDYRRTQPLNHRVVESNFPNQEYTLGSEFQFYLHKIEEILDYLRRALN

[6] = tested on: Helicobacter pylori; remark: listed apart in the source
Description: Inhibition of Helicobacter pylori alpha CA

[7] = target: Carbonic anhydrase 14 (Homo sapiens) (UniProt Q9ULX7)
Carbonic anhydrase 14 (Homo sapiens), sequence (Q9ULX7 whole entry): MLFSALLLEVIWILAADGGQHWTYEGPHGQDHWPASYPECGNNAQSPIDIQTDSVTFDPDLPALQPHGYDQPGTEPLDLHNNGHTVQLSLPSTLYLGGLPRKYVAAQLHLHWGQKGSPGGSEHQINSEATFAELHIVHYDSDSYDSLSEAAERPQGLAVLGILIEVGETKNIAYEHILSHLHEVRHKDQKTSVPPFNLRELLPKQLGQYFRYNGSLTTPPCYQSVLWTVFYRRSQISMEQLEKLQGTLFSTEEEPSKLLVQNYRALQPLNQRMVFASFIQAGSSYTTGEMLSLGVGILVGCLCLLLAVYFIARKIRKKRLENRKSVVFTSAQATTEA

[8] = target: Carbonic anhydrase 4 (Homo sapiens) (UniProt P22748)
Carbonic anhydrase 4 (Homo sapiens), sequence (P22748 whole entry): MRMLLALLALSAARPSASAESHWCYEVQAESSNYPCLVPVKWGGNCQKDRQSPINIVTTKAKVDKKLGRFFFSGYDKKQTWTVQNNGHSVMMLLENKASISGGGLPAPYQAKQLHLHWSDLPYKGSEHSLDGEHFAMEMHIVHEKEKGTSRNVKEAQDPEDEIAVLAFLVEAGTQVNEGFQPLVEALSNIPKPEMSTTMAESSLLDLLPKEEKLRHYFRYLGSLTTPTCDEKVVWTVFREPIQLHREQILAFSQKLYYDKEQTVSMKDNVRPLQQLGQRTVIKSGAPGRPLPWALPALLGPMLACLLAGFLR

[9] = target: Carbonic anhydrase 12 (Homo sapiens) (UniProt O43570)
Carbonic anhydrase 12 (Homo sapiens), sequence (O43570 whole entry): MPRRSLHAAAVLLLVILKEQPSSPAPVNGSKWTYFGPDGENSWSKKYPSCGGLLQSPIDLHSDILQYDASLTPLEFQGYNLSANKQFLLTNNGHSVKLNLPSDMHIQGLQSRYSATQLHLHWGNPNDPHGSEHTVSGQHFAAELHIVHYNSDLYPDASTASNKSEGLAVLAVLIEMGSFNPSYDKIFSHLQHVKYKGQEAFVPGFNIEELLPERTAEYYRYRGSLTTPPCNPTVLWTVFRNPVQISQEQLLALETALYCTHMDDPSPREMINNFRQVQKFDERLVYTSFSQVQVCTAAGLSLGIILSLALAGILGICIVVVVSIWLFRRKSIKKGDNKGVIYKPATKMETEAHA

[10] = target: Carbonic anhydrase 9 (Homo sapiens) (UniProt Q16790)
Description: Inhibition of human CA9 catalytic domain

[11] = target: Carbonic anhydrase 13 (Mus musculus) (UniProt Q9D6N1); experiment: Inhibition of mouse CA13
Carbonic anhydrase 13 (Mus musculus), sequence (Q9D6N1 whole entry, looked up): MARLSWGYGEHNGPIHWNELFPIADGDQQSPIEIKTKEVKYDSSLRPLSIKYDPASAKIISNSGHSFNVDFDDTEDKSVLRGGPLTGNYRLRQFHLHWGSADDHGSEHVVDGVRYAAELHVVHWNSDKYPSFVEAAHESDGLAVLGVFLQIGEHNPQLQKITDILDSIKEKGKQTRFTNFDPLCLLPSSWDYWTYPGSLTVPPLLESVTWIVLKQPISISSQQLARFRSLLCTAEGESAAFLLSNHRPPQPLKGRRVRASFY

[12] = target: Carbonic anhydrase 7 (Homo sapiens) (UniProt P43166)
Carbonic anhydrase 7 (Homo sapiens), sequence (P43166 whole entry): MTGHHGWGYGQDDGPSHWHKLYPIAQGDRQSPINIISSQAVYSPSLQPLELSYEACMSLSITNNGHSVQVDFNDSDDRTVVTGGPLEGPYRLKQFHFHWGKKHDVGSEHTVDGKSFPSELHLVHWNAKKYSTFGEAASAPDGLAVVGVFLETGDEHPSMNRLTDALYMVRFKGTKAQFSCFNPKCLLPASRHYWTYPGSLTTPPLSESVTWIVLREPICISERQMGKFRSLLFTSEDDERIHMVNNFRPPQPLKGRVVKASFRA

[13] = target: Carbonic anhydrase 1 (Homo sapiens) (UniProt P00915)
Carbonic anhydrase 1 (Homo sapiens), sequence (P00915 2-261 limits assumed): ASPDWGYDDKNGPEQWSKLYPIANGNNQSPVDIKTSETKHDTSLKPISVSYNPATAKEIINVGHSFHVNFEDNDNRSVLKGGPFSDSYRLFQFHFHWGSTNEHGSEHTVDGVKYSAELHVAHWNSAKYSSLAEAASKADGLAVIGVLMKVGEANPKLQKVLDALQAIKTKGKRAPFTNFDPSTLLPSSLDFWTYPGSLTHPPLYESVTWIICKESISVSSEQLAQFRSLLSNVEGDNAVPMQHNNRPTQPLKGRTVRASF

Carbonic anhydrase 5A, mitochondrial (Homo sapiens), sequence (P35218 whole entry): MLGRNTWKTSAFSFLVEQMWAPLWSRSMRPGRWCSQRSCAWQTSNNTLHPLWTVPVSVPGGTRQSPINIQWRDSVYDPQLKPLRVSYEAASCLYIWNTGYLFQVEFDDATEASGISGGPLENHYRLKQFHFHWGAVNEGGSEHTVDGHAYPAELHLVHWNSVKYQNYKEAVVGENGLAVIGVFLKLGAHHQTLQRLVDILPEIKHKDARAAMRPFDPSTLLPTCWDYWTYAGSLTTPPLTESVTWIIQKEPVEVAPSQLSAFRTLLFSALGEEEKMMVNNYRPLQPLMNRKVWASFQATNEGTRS
Carbonic anhydrase 5B, mitochondrial (Homo sapiens), sequence (Q9Y2D0 whole entry): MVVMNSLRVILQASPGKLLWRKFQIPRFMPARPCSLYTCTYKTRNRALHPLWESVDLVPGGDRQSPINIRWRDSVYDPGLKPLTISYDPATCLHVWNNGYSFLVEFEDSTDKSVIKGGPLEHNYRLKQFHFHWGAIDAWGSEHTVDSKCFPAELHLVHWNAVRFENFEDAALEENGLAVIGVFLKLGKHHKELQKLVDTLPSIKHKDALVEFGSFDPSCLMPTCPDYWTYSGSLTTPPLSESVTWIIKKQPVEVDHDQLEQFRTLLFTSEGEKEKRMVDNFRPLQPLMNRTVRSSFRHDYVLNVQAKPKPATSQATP

Row | Kinact [1] [nM] | Kinact [2] [nM] | Kinact [3] [nM] | Kinact [4] [nM] | Kinact [5] [nM] | Kinact [6] [nM] | Kinact [7] [nM] | Kinact [8] [nM] | Kinact [9] [nM] | Kinact [10] [nM] | Kinact [11] [µM] | Kinact [12] [nM] | Kinact [13] [nM] | Structure (SMILES)
1 | 460 | 30 | 50 | 128 | 0.9 | 210 | 24 | – | – | – | – | – | – | CCN[C@H]1CN(CCCOC)S(=O)(=O)c2sc(S(N)(=O)=O)cc21
2 | 140 | – | – | 176 | – | 225 | – | – | – | – | – | – | – | CC(=O)/N=c1/sc(S(N)(=O)=O)nn1C
3 | – | 603 | 4220 | – | 3660 | – | 4100 | 427 | 355 | 367 | 3.89 | – | – | NS(=O)(=O)c1cc2c(cc1Cl)NC(C(Cl)Cl)NS2(=O)=O (stereo unspecified)
4 | – | – | 499 | – | – | – | – | – | – | – | – | 513 | 62 | NS(=O)(=O)c1cc(C(=O)O)c(NCC2CCCO2)cc1Cl (stereo unspecified)
